Like-named read-outs stand apart in the source and are kept apart here.
Assays:
CYP2D6 = CYP2D6 (Homo sapiens (Human), UniProt P10635); test: Reversible CYP inhibition, 2D6; format: in vitro ADME; settings: up to 50 μM for Example 3, up to 25 μM for Examples 644 and 641
Description: Reversible CYP inhibition, time dependent CYP inhibition (TDI) and CYP induction was tested at Cyprotex PLC according to authority guidance.

STAT6 bla-RA1 cells = test: STAT6 assay (IL-4 stimulated reporter cells); format: cell-based; settings: for EC50: interleukin 4 10 ng/mL; for STAT5/STAT6 EC50 ratio (selectivity for STAT6 over STAT5): selectivity for STAT6 over STAT5, from EC50
Description: Twenty-five μL of a STAT6 bla-RA1 (Invitrogen # K1243) cell suspension was seeded with a density of 30-40,000 cells/well in 384-well Black View-plates (PerkinElmer #6007460) with clear bottom in assay medium (Opti-MEM (Invitrogen #11058-021)+0.5% heat inactivated fetal bovine Serum (Invitrogen #10082-147)+1% non-essential amino acids (Invitrogen #11140-050)+1% sodium pyruvate (Invitrogen #11360-070)+1% penicillin/streptomycin (Invitrogen #15140-122)); containing 550 ng/mL of CD40 ligand (Invitrogen # PHP0025). The cell plates were incubated overnight in a humidified 37° C. air/CO2 (95%/5%) incubator. The following day, 125 nL of solutions of test compounds and reference compounds were transferred to cell plates using the Labcyte Echo 550 liquid handler. The plates were then incubated for 1 h in a humidified 37° C. air/CO2 (95%/5%) incubator. Hereafter recombinant human interleukin 4 (Invitrogen # PHC0045) were added to the plates also using the Labcyte Echo 550 to a final concentration of 10 ng/mL. The cells were then incubated for 4½-5 h in a humidified 37° C. air/CO2 (95%/5%) incubator. 8 μL of LiveBLAzer substrate mixture (Invitrogen # K1095) were then added to the assay plates, which were incubated overnight at RT. Fluorescence was then measured: Excitation: 405 nm; Emission: 460 nm (green channel), Emission: 535 nm (blue channel). Background was subtracted in both emission channels and the ratio 460/535 nm was calculated for each well.

JAK1 = JAK1 (Homo sapiens (Human), UniProt P23458); test: JAK1 kinase assay (HTRF); format: biochemical; settings: for JAK2/JAK1 ratio / JAK3/JAK1 ratio: ratio of the respective EC50
Sequence of JAK1 (P23458 850-1154): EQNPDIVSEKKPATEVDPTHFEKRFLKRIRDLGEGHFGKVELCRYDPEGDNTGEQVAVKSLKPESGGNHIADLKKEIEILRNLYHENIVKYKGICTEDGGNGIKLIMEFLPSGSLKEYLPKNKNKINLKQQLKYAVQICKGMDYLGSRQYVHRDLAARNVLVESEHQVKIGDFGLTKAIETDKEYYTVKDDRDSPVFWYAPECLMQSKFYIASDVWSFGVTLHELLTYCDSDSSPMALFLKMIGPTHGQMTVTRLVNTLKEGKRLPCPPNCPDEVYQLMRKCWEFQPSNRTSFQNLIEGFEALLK
Description: (§1) Human baculovirus-expressed Janus kinase (JAK) 1, 2, 3 and tyrosin kinase (TYK) 2 were purchased from Carna Biosciences, Inc (#08-144, -045, -046, -147 resp.). All four purified enzymes contain only the catalytic domain. JAK1 (aa 850-1154) and TYK2 (aa 871-1187) are expressed with an N-terminally fused GST-tag, and JAK2 and JAK3 with an N-terminally fused His-tag. Inhibition of phosphorylation of a synthetic peptide was measured in an HTRF-based assay (CisBio #62TKOPEC). First, 75 nL of test compound solution (100% DMSO) was added to a white shallow 384-well plate (NUNC #264706) using a Labcyte ECHO 550 liquid handler. Thereafter, 1 μL of compound dilution buffer (50 mM HEPES, 0.05% bovine serum albumin) and 2 μL of TK solution (TK substrate-biotin in kinase buffer [1× enzymatic buffer from HTRFKinEASE TK kit, 1 mM DTT]) was added. Then, 5 μL kinase-ATP mix (prepared in kinase buffer) was added to the wells and the plates were incubated at RT for 20 (JAK2, 3 and TYK2) to 40 (JAK1) min. For all four kinases a concentration of ATP that corresponded to the Km for ATP was used. The final concentrations of buffers, substrate, kinase and ATP were: JAK1: 50 mM Hepes buffer pH 7.0, 0.01% BSA, 10 mM MgCl2, 1 mM DTT, 7 μM ATP, 50 nM SEB, 1 μM TK Substrate-Biotin and 5 ng/well JAK1; JAK2: 50 mM Hepes buffer pH 7.0, 0.01% BSA, 5 mM MgCl2, 1 mM DTT, 4 μM ATP, 1 μM TK Substrate-Biotin and 0.1 ng/well JAK2; JAK3: 50 mM Hepes buffer pH 7.0, 0.01% BSA, 5 mM MgCl2, 1 mM DTT, 2 μM ATP, 1 μM TK Substrate-Biotin and 0.3 ng/well JAK3; TYK2: 50 mM Hepes buffer pH 7.0, 0.01% BSA, 5 mM MgCl2, 1 mM DTT, 13 μM ATP, 50 nM SEB, 1 μM TK Substrate-Biotin and 0.8 ng/well TYK2. Thereafter, the kinase reaction was stopped by adding 4 μL detection mix (final concentrations: 50 mM Hepes buffer pH 7.0, 0.01% BSA, 0.8 M KF, 20 mM EDTA, 42 nM Streptavidin-XL665 and 1:400 STK Ab Cryptate) and the plates were incubated overnight in the dark. A PerkinElmer Envision reader was used to quantify the HTRF signal using the following filters; 320 nm excitation filter, 665 nm emission filter and a 615 nm 2nd emission filter. A ratio ((665/615)×10^4) was calculated for each well.

JAK3 = JAK3 (Homo sapiens (Human), UniProt P52333); test: JAK3 kinase assay (HTRF); format: biochemical
Sequence of JAK3 (P52333 822-1111): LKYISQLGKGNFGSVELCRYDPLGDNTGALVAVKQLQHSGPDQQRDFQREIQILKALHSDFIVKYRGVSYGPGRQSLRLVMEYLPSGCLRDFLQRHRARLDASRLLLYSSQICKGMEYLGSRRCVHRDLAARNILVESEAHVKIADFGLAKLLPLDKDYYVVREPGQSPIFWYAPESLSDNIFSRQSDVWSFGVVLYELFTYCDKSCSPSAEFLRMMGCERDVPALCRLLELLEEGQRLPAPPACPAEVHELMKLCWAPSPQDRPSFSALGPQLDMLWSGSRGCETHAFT
Description: as §1

Sequence of CYP2D6 (P10635 whole entry): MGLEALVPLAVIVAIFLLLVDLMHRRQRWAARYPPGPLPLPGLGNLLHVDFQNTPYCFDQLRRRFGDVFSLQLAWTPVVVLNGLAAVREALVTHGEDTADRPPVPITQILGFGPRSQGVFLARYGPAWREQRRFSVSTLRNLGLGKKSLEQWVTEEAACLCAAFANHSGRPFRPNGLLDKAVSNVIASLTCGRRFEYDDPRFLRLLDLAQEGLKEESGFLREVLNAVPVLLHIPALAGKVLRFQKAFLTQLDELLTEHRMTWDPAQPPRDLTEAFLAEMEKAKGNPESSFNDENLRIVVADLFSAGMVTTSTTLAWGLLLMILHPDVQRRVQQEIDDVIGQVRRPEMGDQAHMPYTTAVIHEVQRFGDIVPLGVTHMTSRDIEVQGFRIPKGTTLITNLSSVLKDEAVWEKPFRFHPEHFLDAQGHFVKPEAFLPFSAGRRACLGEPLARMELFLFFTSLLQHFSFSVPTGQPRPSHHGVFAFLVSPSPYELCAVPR

| EC50 (JAK1) | EC50 (JAK3) | SMILES | IC50 (CYP2D6) | EC50 (STAT6 bla-RA1 cells) | STAT5/STAT6 EC50 ratio (selectivity for STAT6 over STAT5) (STAT6 bla-RA1 cells) | EC50 (JAK1; ATP at Km (7 μM)) | JAK2/JAK1 ratio (JAK1) | JAK3/JAK1 ratio (JAK1) | EC50 (JAK3; ATP at Km (2 μM)) |
| --- | --- | --- | --- | --- | --- | --- | --- | --- | --- |
|  |  | CNc1cc2c(cn1)nc([C@@H](C)O)n2[C@H]1CC[C@H](CC#N)CC1 [Example 3, trans-2-[4-[2-[(1R)-1-Hydroxyethyl]-6-(methylamino)imidazo[4,5-c]pyridin-1-yl]cyclohexyl]acetonitrile] | > 50000 nM | 94.5 nM | 68 | 3.48 nM | 51 | 489 | 1700 nM |
| 6.81 nM | 739 nM | C[C@@H](O)c1nc2cnc3[nH]ccc3c2n1[C@H]1CC[C@H](C#N)CC1 [Example 641 of WO2011086053] | > 25000 nM | 178 nM | 32 |  | 33 | 109 |  |
|  |  | C[C@@H](O)c1nc2cnc3[nH]ccc3c2n1[C@H]1CC[C@H](CC#N)CC1 [Example 644 of WO2011086053] | > 25000 nM | 10.5 nM |  | 0.34 nM |  |  | 13.1 nM |

Source: patent publication US10703751B2, “Amino-imidazopyridine derivatives as Janus kinase inhibitors and pharmaceutical use thereof” (LEO Pharma A/S, priority 2017, dated 2020)
